Results: PubChem BioAssay AID248 (DTP/NCI, 2004)
Where “and” joins values, the source holds several entries; their conditions need not be identical. Equal values may be shown once. Toxic doses and inconclusive results are not listed. Rule as the data show it: active = T/C of 150% or more; inactive = T/C below 125%.

Tested on: L1210 leukemia ip in BDF1 mice, survival T/C
Experiment: NCI In Vivo Anticancer Drug Screen. Data for tumor model L1210 Leukemia (intraperitoneal) in B6D2F1 (BDF1) mice
Conditions: endpoint: mean survival time, higher = longer survival
How it was run: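 Each compound was tested against a transplantable tumor grown in mice. The endpoint was survival, with treated animals benchmarked against vehicle controls as a simple ratio.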

[1] = dose: 100.0 mg/kg/injection, schedule: Q01DX009 (ip), vehicle: saline with Tween-80
[2] = dose: 100.0 mg/kg/injection, schedule: Q04DX002 (ip), vehicle: saline with Tween-80
[3] = dose: 100.0 mg/kg/injection, schedule: Q04DX003 (ip), vehicle: saline with Tween-80
[4] = dose: 200.0 mg/kg/injection, schedule: Q01DX009 (ip), vehicle: saline with Tween-80
[5] = dose: 200.0 mg/kg/injection, schedule: Q04DX002 (ip), vehicle: saline with Tween-80
[6] = dose: 200.0 mg/kg/injection, schedule: Q04DX003 (ip), vehicle: saline with Tween-80
[7] = dose: 400.0 mg/kg/injection, schedule: Q04DX002 (ip), vehicle: saline with Tween-80
[8] = dose: 400.0 mg/kg/injection, schedule: Q04DX003 (ip), vehicle: saline with Tween-80
[9] = dose: 100.0 mg/kg/injection, schedule: Q01DX009 (ip), vehicle: saline
[10] = dose: 100.0 mg/kg/injection, schedule: Q04DX003 (ip), vehicle: saline
[11] = dose: 25.0 mg/kg/injection, schedule: Q01DX009 (ip), vehicle: Klucel (hydroxypropylcellulose) (HPC)
[12] = dose: 100.0 mg/kg/injection, schedule: Q01DX009 (ip), vehicle: Klucel (hydroxypropylcellulose) (HPC)
[13] = dose: 200.0 mg/kg/injection, schedule: Q01DX009 (ip), vehicle: Klucel (hydroxypropylcellulose) (HPC)
[14] = dose: 400.0 mg/kg/injection, schedule: Q01DX009 (ip), vehicle: Klucel (hydroxypropylcellulose) (HPC)
[15] = dose: 50.0 mg/kg/injection, schedule: Q01DX009 (ip), vehicle: saline with Tween-80
[16] = dose: 100.0 mg/kg/injection, schedule: Q04DX003 (ip), vehicle: Klucel (hydroxypropylcellulose) (HPC)
[17] = dose: 200.0 mg/kg/injection, schedule: Q04DX003 (ip), vehicle: Klucel (hydroxypropylcellulose) (HPC)
[18] = dose: 25.0 mg/kg/injection, schedule: Q04DX003 (ip), vehicle: Klucel (hydroxypropylcellulose) (HPC)
[19] = dose: 50.0 mg/kg/injection, schedule: Q01DX009 (ip), vehicle: Klucel (hydroxypropylcellulose) (HPC)
[20] = dose: 50.0 mg/kg/injection, schedule: Q04DX003 (ip), vehicle: Klucel (hydroxypropylcellulose) (HPC)

Measured: T/C

CCCCCCCCCCCC(=O)NC(=S)Nc1ccc(C)c(C)c1
inactive: dose: 50.0 mg/kg/injection, schedule: Q01DX001 (ip), vehicle: saline with Tween-80 86 % of control | dose: 100.0 mg/kg/injection, schedule: Q01DX001 (ip), vehicle: saline with Tween-80 91 % of control | [1] 90 % of control and 91 % of control | [2] 103 % of control and 91 % of control | [3] 93 % of control | [4] 103 % of control and 105 % of control | [5] 94 % of control and 88 % of control | [6] 90 % of control | [7] 94 % of control and 91 % of control | [8] 88 % of control

CCCCCCCCC(=O)CCCCC
inactive: [9] 92 % of control | [10] 101 % of control | dose: 200.0 mg/kg/injection, schedule: Q01DX009 (ip), vehicle: saline 94 % of control | dose: 200.0 mg/kg/injection, schedule: Q04DX003 (ip), vehicle: saline 105 % of control | dose: 400.0 mg/kg/injection, schedule: Q04DX003 (ip), vehicle: saline 100 % of control

CCC(=O)n1ncc2ccc([N+](=O)[O-])cc21
inactive: [3] 103 % of control | [6] 88 % of control | [8] 93 % of control

CCCCCCCCS.[Ni]
inactive: dose: 6.0 mg/kg/injection, schedule: Q01DX009 (ip), vehicle: Klucel (hydroxypropylcellulose) (HPC) 100 % of control | dose: 12.0 mg/kg/injection, schedule: Q01DX009 (ip), vehicle: Klucel (hydroxypropylcellulose) (HPC) 92 % of control | [11] 92 % of control | [10] 102 % of control

CC1(C)CCC(NC(=O)NCCF)CC1
inactive: dose: 9.5 mg/kg/injection, schedule: Q01DX001 (ip), vehicle: other 95 % of control | dose: 19.0 mg/kg/injection, schedule: Q01DX001 (ip), vehicle: other 102 % of control | dose: 38.0 mg/kg/injection, schedule: Q01DX001 (ip), vehicle: other 101 % of control

O=[N+]([O-])c1ccccc1/C=N/Nc1nnc(N/N=C/c2ccccc2[N+](=O)[O-])c2ccccc12
inactive: dose: 50.0 mg/kg/injection, schedule: Q01DX001 (ip), vehicle: carboxymethylcellulose (CMC) 104 % of control | dose: 100.0 mg/kg/injection, schedule: Q01DX001 (ip), vehicle: carboxymethylcellulose (CMC) 93 % of control | dose: 200.0 mg/kg/injection, schedule: Q01DX001 (ip), vehicle: carboxymethylcellulose (CMC) 98 % of control | dose: 400.0 mg/kg/injection, schedule: Q01DX001 (ip), vehicle: carboxymethylcellulose (CMC) 98 % of control

O=NN(CCCl)C(=O)Nc1ccc(S(=O)(=O)c2ccc(NC(=O)N(CCCl)N=O)cc2)cc1
active: dose: 100.0 mg/kg/injection, schedule: Q01DX009 (ip), vehicle: carboxymethylcellulose (CMC) 184 % of control | dose: 118.0 mg/kg/injection, schedule: Q01DX009 (ip), vehicle: carboxymethylcellulose (CMC) 152 % of control | dose: 177.0 mg/kg/injection, schedule: Q01DX001 (ip), vehicle: carboxymethylcellulose (CMC) 156 % of control | dose: 200.0 mg/kg/injection, schedule: Q01DX009 (ip), vehicle: carboxymethylcellulose (CMC) 192 % of control | dose: 266.0 mg/kg/injection, schedule: Q01DX001 (ip), vehicle: carboxymethylcellulose (CMC) 159 % of control | dose: 266.0 mg/kg/injection, schedule: Q01DX009 (ip), vehicle: carboxymethylcellulose (CMC) 170 % of control | dose: 400.0 mg/kg/injection, schedule: Q01DX009 (ip), vehicle: carboxymethylcellulose (CMC) 173 % of control and 186 % of control | dose: 600.0 mg/kg/injection, schedule: Q01DX001 (ip), vehicle: carboxymethylcellulose (CMC) 161 % of control and 172 % of control

Cc1cccc(C)c1NC(=S)N(CCC#N)C(C)C
inactive: [12] 103 % of control | [13] 106 % of control | [14] 96 % of control

CCOC(=O)C1CCCCC1O (configuration not stated)
inactive: [15] 103 % of control | [1] 95 % of control | [2] 97 % of control | [4] 103 % of control | [5] 97 % of control | [7] 104 % of control

N#CCN(CC#N)S(=O)(=O)c1ccccc1
inactive: [3] 96 % of control | [6] 94 % of control | [8] 101 % of control

CCOC(=O)NCNC(=O)OCC
inactive: dose: 100.0 mg/kg/injection, schedule: Q01DX009 (ip), vehicle: saline sonified 104 % of control | dose: 100.0 mg/kg/injection, schedule: Q04DX003 (ip), vehicle: saline sonified 100 % of control | dose: 200.0 mg/kg/injection, schedule: Q01DX009 (ip), vehicle: saline sonified 95 % of control | dose: 200.0 mg/kg/injection, schedule: Q04DX003 (ip), vehicle: saline sonified 97 % of control | dose: 400.0 mg/kg/injection, schedule: Q01DX009 (ip), vehicle: saline sonified 91 % of control | dose: 400.0 mg/kg/injection, schedule: Q04DX003 (ip), vehicle: saline sonified 94 % of control

CC(C)C(=O)NNC(=O)C(C)C
inactive: [16] 100 % of control | [17] 108 % of control | dose: 400.0 mg/kg/injection, schedule: Q04DX003 (ip), vehicle: Klucel (hydroxypropylcellulose) (HPC) 106 % of control

CCN(CC)CCNCc1cc(Cl)c2cccnc2c1O
inactive: dose: 6.25 mg/kg/injection, schedule: Q04DX002 (ip), vehicle: saline 90 % of control | dose: 12.5 mg/kg/injection, schedule: Q04DX002 (ip), vehicle: saline 97 % of control | dose: 25.0 mg/kg/injection, schedule: Q04DX002 (ip), vehicle: saline 94 % of control

CCOC(=O)/C=C(\N)c1ccccc1
inactive: [2] 102 % of control | [5] 108 % of control | [7] 91 % of control

COc1ccc2c3c(ccc2c1)C(=O)/C(=C\O)CC3
inactive: [11] 92 % of control | [18] 100 % of control | [19] 108 % of control | [20] 101 % of control | [12] 88 % of control | [16] 100 % of control and 103 % of control | [17] 103 % of control

CCCCCCN(/N=C\C(=O)O)C(N)=O
inactive: [15] 103 % of control | [1] 88 % of control | [4] 98 % of control

CSc1ccc(NC(=O)Nc2ccc(Cl)cc2C(=O)c2ccccc2)cc1
inactive: [12] 91 % of control | [13] 88 % of control

O=C(Nc1ccc(Cl)cc1)Nc1cccc(F)c1
inactive: [12] 90 % of control | [13] 94 % of control | [14] 110 % of control

C=C=[CH][Sn]([c]1ccccc1)([c]1ccccc1)[c]1ccccc1
inactive: dose: 12.5 mg/kg/injection, schedule: Q01DX009 (ip), vehicle: Klucel (hydroxypropylcellulose) (HPC) 100 % of control | dose: 12.5 mg/kg/injection, schedule: Q04DX003 (ip), vehicle: Klucel (hydroxypropylcellulose) (HPC) 99 % of control | [11] 102 % of control | [18] 106 % of control | [19] 89 % of control | [20] 99 % of control

CCOC(=O)C(C(=O)OCC)C1c2ccccc2C(=O)N(CCN(C)C)c2ccccc21 (configuration not stated)
inactive: dose: 25.0 mg/kg/injection, schedule: Q01DX009 (ip), vehicle: saline 96 % of control | dose: 50.0 mg/kg/injection, schedule: Q01DX009 (ip), vehicle: saline 99 % of control | [9] 98 % of control

CCCC(C)(C)C(=O)Nc1cccc(OC(=O)NC(C)(C)C)c1
inactive: [1] 88 % of control | [4] 86 % of control | dose: 400.0 mg/kg/injection, schedule: Q01DX009 (ip), vehicle: saline with Tween-80 89 % of control

CCN=C(N)SCCS(=O)(=O)O
inactive: dose: 100.0 mg/kg/injection, schedule: Q04DX002 (ip), vehicle: saline 98 % of control | dose: 200.0 mg/kg/injection, schedule: Q04DX002 (ip), vehicle: saline 95 % of control | dose: 400.0 mg/kg/injection, schedule: Q04DX002 (ip), vehicle: saline 92 % of control

C/C=C/C(=O)OCC (tested in a mixture with another compound)
inactive: [15] 97 % of control | [1] 93 % of control | [4] 93 % of control
